Measured values: PMC4457528, “Identification of Novel Small Molecule Inhibitors of Oncogenic RET Kinase” (PLoS ONE, 2015)
Like-named read-outs stand apart in the source and are kept apart here.

Key:
Assay in all cases: KinomeScan kinase panel, single concentration 10 µM
Type in all cases: binding
[1] = target: T1, KinomeScan kinase panel (Homo sapiens, UniProt P10721, V559D); details: KIT(V559D), 10 µM; read-out: score (%)
T1 construct: purchased DiscoveRx (KinomeScan)

[2] = target: T2, KinomeScan kinase panel (Homo sapiens, UniProt P53671); details: LIMK2, 10 µM; read-out: score (%)
T2 construct: purchased DiscoveRx (KinomeScan)
T2 sequence (P53671 whole entry): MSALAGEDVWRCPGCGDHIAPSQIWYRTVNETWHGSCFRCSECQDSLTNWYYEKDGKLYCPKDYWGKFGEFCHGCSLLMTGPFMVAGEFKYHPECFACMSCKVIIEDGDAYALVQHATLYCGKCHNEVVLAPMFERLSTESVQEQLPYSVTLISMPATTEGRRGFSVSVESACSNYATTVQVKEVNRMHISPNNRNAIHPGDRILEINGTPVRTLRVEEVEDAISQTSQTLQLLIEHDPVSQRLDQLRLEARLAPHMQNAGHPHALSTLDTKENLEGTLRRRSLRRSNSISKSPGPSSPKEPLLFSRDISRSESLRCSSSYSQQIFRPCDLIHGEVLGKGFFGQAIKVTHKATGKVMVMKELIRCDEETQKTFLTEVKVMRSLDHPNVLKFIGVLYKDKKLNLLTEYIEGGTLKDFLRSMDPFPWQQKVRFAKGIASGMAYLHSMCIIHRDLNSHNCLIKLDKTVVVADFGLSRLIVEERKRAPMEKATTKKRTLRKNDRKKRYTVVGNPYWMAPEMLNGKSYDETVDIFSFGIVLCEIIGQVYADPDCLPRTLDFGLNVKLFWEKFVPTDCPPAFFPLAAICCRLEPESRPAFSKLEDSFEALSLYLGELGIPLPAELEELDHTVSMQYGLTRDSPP

[3] = target: T3, KinomeScan kinase panel (Homo sapiens, UniProt Q86YV6); details: read-out: score (%)
T3 construct: purchased DiscoveRx (KinomeScan)
T3 sequence (Q86YV6 1-388): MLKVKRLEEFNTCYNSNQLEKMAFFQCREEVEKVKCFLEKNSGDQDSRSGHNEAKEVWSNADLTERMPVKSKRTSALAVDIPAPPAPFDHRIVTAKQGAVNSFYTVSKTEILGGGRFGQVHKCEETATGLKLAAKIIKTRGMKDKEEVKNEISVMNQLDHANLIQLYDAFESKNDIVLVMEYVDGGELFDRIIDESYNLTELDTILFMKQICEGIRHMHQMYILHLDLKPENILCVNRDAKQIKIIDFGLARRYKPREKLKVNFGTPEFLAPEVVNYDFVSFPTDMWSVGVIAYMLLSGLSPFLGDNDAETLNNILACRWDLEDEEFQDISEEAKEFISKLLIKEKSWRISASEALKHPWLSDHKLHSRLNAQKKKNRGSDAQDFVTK

[4] = target: T4, KinomeScan kinase panel (Homo sapiens, UniProt P51817); details: 10 µM, read-out: score (%)
T4 construct: purchased DiscoveRx (KinomeScan)
T4 sequence (P51817 1-358): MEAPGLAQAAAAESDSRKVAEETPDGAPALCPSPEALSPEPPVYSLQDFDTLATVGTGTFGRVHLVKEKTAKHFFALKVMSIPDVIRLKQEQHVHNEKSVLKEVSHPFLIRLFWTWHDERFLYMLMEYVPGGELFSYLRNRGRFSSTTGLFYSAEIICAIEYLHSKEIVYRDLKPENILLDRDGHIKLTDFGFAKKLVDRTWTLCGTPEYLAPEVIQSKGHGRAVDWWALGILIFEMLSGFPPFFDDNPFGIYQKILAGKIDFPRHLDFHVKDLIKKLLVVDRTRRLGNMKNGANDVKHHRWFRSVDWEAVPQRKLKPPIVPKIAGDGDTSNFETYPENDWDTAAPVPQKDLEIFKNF

[5] = target: T5, KinomeScan kinase panel (Homo sapiens, UniProt O43318); details: read-out: score (%)
T5 construct: purchased DiscoveRx (KinomeScan)
T5 sequence (O43318 1-606): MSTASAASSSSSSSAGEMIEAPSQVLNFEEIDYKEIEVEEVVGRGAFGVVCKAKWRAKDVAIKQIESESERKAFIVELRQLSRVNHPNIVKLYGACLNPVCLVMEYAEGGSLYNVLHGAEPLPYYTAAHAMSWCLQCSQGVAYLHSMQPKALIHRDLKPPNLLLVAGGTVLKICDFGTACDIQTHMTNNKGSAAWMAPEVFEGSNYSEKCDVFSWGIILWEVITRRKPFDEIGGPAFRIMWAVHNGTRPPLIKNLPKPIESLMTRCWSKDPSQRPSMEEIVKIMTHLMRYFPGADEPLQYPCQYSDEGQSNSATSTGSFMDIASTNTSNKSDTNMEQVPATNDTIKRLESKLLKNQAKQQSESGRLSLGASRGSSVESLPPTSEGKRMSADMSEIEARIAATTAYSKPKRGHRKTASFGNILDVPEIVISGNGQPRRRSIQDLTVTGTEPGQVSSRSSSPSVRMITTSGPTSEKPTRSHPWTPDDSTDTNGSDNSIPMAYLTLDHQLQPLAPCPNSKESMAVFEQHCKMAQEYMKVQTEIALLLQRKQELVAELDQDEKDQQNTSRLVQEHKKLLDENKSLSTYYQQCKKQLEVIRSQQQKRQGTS

[6] = target: T6, KinomeScan kinase panel (Homo sapiens, UniProt Q9P0L2); details: MARK1, 10 µM; read-out: score (%)
T6 construct: purchased DiscoveRx (KinomeScan)
T6 sequence (Q9P0L2 whole entry): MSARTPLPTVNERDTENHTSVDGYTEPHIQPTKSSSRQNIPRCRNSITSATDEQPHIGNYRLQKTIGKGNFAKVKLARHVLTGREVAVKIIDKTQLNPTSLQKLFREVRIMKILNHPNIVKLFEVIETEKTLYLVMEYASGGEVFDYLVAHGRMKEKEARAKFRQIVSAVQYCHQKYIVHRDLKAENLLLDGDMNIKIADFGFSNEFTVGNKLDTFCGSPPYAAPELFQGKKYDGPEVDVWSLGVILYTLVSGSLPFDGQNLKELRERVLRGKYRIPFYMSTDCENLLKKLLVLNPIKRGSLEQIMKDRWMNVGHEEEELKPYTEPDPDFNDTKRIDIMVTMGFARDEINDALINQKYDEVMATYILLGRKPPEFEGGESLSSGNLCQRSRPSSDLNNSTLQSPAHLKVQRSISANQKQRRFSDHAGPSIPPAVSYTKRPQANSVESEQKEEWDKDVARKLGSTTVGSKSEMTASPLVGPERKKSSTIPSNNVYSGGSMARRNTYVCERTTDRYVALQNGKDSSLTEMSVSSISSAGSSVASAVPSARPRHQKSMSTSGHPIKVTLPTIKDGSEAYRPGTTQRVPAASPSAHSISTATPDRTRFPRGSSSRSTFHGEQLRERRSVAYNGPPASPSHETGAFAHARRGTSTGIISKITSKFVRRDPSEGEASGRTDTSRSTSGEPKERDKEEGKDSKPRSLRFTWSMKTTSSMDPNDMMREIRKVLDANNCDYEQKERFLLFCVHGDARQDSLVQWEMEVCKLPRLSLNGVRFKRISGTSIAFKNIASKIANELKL

[7] = target: T7, KinomeScan kinase panel (Homo sapiens, UniProt P49336); details: CDK8, 10 µM
T7 construct: purchased DiscoveRx (KinomeScan)
T7 sequence (P49336 whole entry): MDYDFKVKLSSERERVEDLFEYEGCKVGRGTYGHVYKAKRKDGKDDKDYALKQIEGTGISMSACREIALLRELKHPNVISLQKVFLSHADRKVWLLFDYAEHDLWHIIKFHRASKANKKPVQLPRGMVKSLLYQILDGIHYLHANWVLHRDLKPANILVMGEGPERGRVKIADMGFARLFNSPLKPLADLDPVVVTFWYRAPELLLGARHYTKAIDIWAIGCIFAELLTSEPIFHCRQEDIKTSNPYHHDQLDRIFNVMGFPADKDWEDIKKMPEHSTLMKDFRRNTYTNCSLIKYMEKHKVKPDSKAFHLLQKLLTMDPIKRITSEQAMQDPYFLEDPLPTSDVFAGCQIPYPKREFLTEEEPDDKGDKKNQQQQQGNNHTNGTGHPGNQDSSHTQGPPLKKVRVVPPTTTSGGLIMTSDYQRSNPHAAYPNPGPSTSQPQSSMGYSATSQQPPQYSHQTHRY

[8] = target: T8, KinomeScan kinase panel (Homo sapiens, UniProt P36897); details: read-out: score (%)
T8 construct: purchased DiscoveRx (KinomeScan)
T8 sequence (P36897 34-503): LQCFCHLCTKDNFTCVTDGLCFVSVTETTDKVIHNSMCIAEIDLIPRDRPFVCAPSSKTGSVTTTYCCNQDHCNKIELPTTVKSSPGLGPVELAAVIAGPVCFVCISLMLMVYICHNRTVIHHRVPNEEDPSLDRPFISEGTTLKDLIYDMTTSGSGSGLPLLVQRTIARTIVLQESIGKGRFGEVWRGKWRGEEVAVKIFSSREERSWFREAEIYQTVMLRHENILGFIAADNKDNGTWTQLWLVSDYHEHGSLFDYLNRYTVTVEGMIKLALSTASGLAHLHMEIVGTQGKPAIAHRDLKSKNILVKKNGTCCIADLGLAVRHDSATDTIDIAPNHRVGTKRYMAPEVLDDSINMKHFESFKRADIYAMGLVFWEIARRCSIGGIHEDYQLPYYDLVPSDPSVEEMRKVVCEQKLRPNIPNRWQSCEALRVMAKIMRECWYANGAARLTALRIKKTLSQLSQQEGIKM

[9] = target: T9, KinomeScan kinase panel (Homo sapiens, UniProt P49761); details: CLK3, 10 µM; read-out: score (%)
T9 construct: purchased DiscoveRx (KinomeScan)
T9 sequence (P49761 whole entry): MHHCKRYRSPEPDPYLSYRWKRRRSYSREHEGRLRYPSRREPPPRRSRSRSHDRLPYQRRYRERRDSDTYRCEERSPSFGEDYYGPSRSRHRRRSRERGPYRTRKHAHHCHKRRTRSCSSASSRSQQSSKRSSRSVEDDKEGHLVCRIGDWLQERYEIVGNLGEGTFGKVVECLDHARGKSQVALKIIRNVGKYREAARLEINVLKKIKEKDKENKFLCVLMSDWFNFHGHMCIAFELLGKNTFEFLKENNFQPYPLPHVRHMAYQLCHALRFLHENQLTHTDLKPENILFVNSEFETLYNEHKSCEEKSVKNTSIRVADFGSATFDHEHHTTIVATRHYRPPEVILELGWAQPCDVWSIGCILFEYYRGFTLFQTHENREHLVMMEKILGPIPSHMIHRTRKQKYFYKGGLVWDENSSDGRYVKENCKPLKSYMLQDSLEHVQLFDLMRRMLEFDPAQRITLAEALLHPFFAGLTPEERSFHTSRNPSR

T1 sequence (P10721 26-976 V559D): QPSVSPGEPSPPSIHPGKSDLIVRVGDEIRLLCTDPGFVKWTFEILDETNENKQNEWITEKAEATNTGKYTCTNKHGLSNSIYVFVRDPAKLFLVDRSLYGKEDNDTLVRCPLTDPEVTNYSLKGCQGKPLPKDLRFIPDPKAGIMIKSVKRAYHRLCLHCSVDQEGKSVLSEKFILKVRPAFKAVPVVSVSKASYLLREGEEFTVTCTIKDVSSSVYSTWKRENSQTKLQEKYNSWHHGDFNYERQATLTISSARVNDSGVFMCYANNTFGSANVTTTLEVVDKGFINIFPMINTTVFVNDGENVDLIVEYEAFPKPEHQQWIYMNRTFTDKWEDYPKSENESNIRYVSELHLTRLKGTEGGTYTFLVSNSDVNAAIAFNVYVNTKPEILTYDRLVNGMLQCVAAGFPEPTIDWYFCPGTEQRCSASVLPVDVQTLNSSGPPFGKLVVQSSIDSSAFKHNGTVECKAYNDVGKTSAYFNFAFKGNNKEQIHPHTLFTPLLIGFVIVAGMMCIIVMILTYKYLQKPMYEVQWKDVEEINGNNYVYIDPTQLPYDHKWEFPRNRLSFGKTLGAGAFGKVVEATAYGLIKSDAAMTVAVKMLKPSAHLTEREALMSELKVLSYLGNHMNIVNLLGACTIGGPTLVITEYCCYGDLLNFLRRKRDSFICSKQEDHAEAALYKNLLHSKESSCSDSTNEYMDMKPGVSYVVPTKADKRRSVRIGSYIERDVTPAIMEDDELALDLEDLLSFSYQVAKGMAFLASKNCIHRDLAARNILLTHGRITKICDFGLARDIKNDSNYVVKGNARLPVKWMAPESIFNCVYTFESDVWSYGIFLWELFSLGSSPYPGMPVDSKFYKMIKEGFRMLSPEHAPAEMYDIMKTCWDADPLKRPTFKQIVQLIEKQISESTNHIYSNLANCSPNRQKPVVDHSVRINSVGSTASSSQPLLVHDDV

SMILES | remaining binding at 10 µM [1] [%] | remaining binding at 10 µM [2] [%] | remaining binding at 10 µM ([3]; kinase SgK085, 10 µM) [%] | remaining binding at 10 µM ([4]; PRKX) [%] | remaining binding at 10 µM ([5]; kinase TAK1, 10 µM) [%] | remaining binding at 10 µM [6] [%] | score (%) [7] [%] | remaining binding at 10 µM ([8]; kinase TGFBR1, 10 µM) [%] | remaining binding at 10 µM [9] [%] | remaining binding at 10 µM ([3]; SgK085, 10 µM) [%] | remaining binding at 10 µM ([5]; TAK1, 10 µM) [%] | remaining binding at 10 µM ([8]; TGFBR1, 10 µM) [%] | remaining binding at 10 µM ([3]; MYLK4, 10 µM) [%] | remaining binding at 10 µM ([4]; kinase PRKX) [%]
CCN1CCN(Cc2ccc(NC(=O)c3ccc(C)c(NC(=O)c4cncc(-c5cccs5)c4)c3)cc2C(F)(F)F)CC1 [ALW-II-41-27] | 0.1 | 31 | > 30 | > 30 | 0 | > 30 | 20 | > 30 | > 30 |  |  |  |  | 
CCN1CCN(Cc2ccc(NC(=O)c3ccc(C)c(/C=C/c4cnc5[nH]ccc5c4Cl)c3)cc2C(F)(F)F)CC1 [HG-6-63-01, (E)-3-(2-(4-chloro-1H-pyrrolo[2,3-b]pyridin-5-yl)vinyl)-N-(4-((4-ethylpiperazin-1-yl)methyl)-3-(trifluoromethyl)phenyl)-4-methylbenzamide] | 0 | 6.6 |  | > 30 |  | > 30 | 9.6 |  | > 30 | 8.5 | 0.1 | > 30 |  | 
CCN1CCN(Cc2ccc(NC(=O)c3ccc(C)c(C#Cc4cccnc4)c3)cc2C(F)(F)F)CC1 [XMD15-44] | 0 | 11 |  |  | 0.2 | > 30 | 8.2 | 100 | > 30 |  |  |  | > 30 | 3.6
